In patent US20110305784A1, “Fractionated products obtained from gamboge resin, and medical uses of the same” (priority 2010, published 2011):
≈ marks a conversion by molar mass, not a printed value. Like-named read-outs stand apart in the source and are kept apart here.

Experiments:
[1] = tested on: Human umbilical venal epithelial cell (HUVEC); test: in vitro; details: HUVEC; for IC50: Homo sapiens
From the text: (§1) The in vitro anti-cancer test was primarily used to detect the effect of a candidate drug on cancer cell proliferation. The working principle involved therein is the ability of viable cells to shift alamarBlue (AbD Serotec, UK) from its originally non-fluorescent oxidized state (non-fluorescent, blue) to a reduced form (fluorescent, red) having fluorescence via metabolic reaction. According to the fluorescent data result generated by the alamarBlue reagent thus obtained, the proliferation of the viable cells and cell activity can be quantified for detection.
(§2) In the in vitro anti-cancer tests, a candidate drug was tested at 5 different concentrations of 0.01, 0.1, 1, 10, and 100 μg/ml, and six human cancer cell lines and a normal human cell line were used (see Table 10).

[2] = tested on: Human breast adenocarcinoma cell MCF7; test: cells; details: for CC50: MCF7, read-out: LC50 (50% lethal concentration)
From the text: as §1, §2

[3] = tested on: Human histocytic lymphoma cell U937; test: cells; details: for CC50: U-937, read-out: LC50 (50% lethal concentration)
From the text: as §1, §2

[4] = tested on: Human colon adenocarcinoma cell HT-29; test: cells; details: for CC50: HT-29, read-out: LC50 (50% lethal concentration)
From the text: as §1, §2

[5] = tested on: Human promyelocytic leukemia cell HL-60; test: cells; details: for CC50: HL-60, read-out: LC50 (50% lethal concentration)
From the text: as §1, §2

[6] = tested on: Human hepatocellular carcinoma cell HepG2; test: cells; details: for CC50: HepG2, read-out: LC50 (50% lethal concentration)
From the text: as §1, §2

[7] = tested on: Human lung carcinoma cell A549; test: cells; details: for CC50: A549, read-out: LC50 (50% lethal concentration)
From the text: as §1, §2

[8] = MCF7, read-out: IC50 (50% inhibition concentration)
[9] = read-out: IC50 (50% inhibition concentration), HUVEC
[10] = HT-29, read-out: IC50 (50% inhibition concentration), HT-29
[11] = HL-60, read-out: IC50 (50% inhibition concentration), HL-60
[12] = MCF7, read-out: IC50 (50% inhibition concentration), MCF-7
[13] = HepG2, read-out: IC50 (50% inhibition concentration), HepG2
[14] = A549, read-out: IC50 (50% inhibition concentration), A549
[15] = U-937, read-out: IC50 (50% inhibition concentration), U937
[16] = HL-60, read-out: IC50 (50% inhibition concentration)
[17] = U-937, read-out: IC50 (50% inhibition concentration)
[18] = read-out: IC50 (50% inhibition concentration)
[19] = HT-29, read-out: IC50 (50% inhibition concentration)
[20] = HepG2, read-out: IC50 (50% inhibition concentration)
[21] = A549, read-out: IC50 (50% inhibition concentration)

| Structure (SMILES) | LC50 (50% lethal concentration) [1] [µg/mL] | CC50 [3] [µg/mL] | CC50 [4] [µg/mL] | CC50 [5] [µg/mL] | CC50 [6] [µg/mL] | IC50 [5, 16] [µg/mL] | other results |
| --- | --- | --- | --- | --- | --- | --- | --- |
| CC(C)=CCC[C@]1(C)C[C@H](O)c2c(O)c3c(c(CC=C(C)C)c2O1)O[C@]12C(=C[C@@H]4CC1C(C)(C)O[C@]2(C/C=C(/C)C(=O)O)C4=O)C3=O (stereo in doubt) [Gh-2641-1, neogambogic acid] | 4.3 (≈ 6.65 µM) | 1 (≈ 1.55 µM) | – | – | – | – | IC50 [2, 8]: 0.2 µg/mL (≈ 0.309 µM) |
| CC(C)=CCC[C@]1(C)C=Cc2c(O)c3c(c(CC=C(C)C)c2O1)O[C@]12C(=C[C@@H]4CC1C(C)(C)O[C@]2(C/C=C(/CO)C(=O)O)C4=O)C3=O [Gh-1601-A, 30-hydroxygambogic acid] | – | 0.28 (≈ 0.434 µM) | 0.77 (≈ 1.19 µM) | 3 (≈ 4.65 µM) | 4.1 (≈ 6.36 µM) | – | IC50 [1, 9]: 0.19 µg/mL (≈ 0.295 µM); IC50 [4, 10]: 0.17 µg/mL (≈ 0.264 µM); IC50 [5, 11]: 0.56 µg/mL (≈ 0.869 µM); IC50 [2, 12]: 0.72 µg/mL (≈ 1.12 µM); CC50 [2]: 4.4 µg/mL (≈ 6.82 µM); IC50 [6, 13]: 1.3 µg/mL (≈ 2.02 µM); IC50 [7, 14]: 0.11 µg/mL (≈ 0.171 µM); CC50 [7]: 6.6 µg/mL (≈ 10.2 µM); IC50 [3, 15]: 0.09 µg/mL (≈ 0.14 µM) |
| CC(C)=CCC[C@@]1(C)C=Cc2c(O)c3c(c(CC=C(C)C)c2O1)O[C@]12C(=C[C@@H]4CC1C(C)(C)O[C@]2(C/C=C(/CO)C(=O)O)C4=O)C3=O [Gh-1602, 30-hydroxyepigambogic acid] | – | 0.69 (≈ 1.07 µM) | 4.2 (≈ 6.51 µM) | 3.3 (≈ 5.12 µM) | 3.5 (≈ 5.43 µM) | – | IC50 [1, 9]: 0.25 µg/mL (≈ 0.388 µM); IC50 [4, 10]: 0.94 µg/mL (≈ 1.46 µM); IC50 [5, 11]: 1 µg/mL (≈ 1.55 µM); IC50 [2, 12]: 0.27 µg/mL (≈ 0.419 µM); CC50 [2]: 4 µg/mL (≈ 6.2 µM); IC50 [6, 13]: 1.3 µg/mL (≈ 2.02 µM); IC50 [7, 14]: 0.4 µg/mL (≈ 0.62 µM); CC50 [7]: 3.7 µg/mL (≈ 5.74 µM); IC50 [3, 15]: 0.14 µg/mL (≈ 0.217 µM) |
| CC(C)=CCC[C@]1(C)C=Cc2c(O)c3c(c(CC=C(C)C)c2O1)O[C@]12C(=C[C@@H]4CC1C(C)(C)O[C@]2(C/C=C(\C)C(=O)O)C4=O)C3=O [Gh-1641, isogambogic acid] | 1.3 (≈ 2.07 µM) | – | – | – | – | 8 (≈ 12.7 µM) | CC50 [7]: 3 µg/mL (≈ 4.77 µM) |
| CC(C)=CCC[C@@]1(C)C=Cc2c(O)c3c(c(CC=C(C)C)c2O1)O[C@]12C(=C[C@@H]4CC1C(C)(C)O[C@]2(C/C=C(\C)C(=O)O)C4=O)C3=O [Gh-1642, epiisogambogic acid] | 1.3 (≈ 2.07 µM) | – | – | – | – | 6 (≈ 9.54 µM) | – |
| CC(C)=CCc1c2c(c(O)c3c1O[C@]14C(=C[C@@H]5CC1C(C)(C)O[C@]4(C/C=C(\C)C=O)C5=O)C3=O)C=CC(C)(C)O2 [Gh-2501, isomorellin] | 1.8 (≈ 3.3 µM) | – | 4 (≈ 7.34 µM) | 4 (≈ 7.34 µM) | – | 1 (≈ 1.84 µM) | IC50 [3, 17]: 0.9 µg/mL (≈ 1.65 µM) |
| CC(C)=CCC/C(C)=C/Cc1c(O)c(CC=C(C)C)c2c(c1O)C(=O)C1=C[C@@H]3CC4C(C)(C)O[C@](C/C=C(/C)C(=O)O)(C3=O)[C@@]14O2 [Gh-2505, gambogenic acid] | 2.3 (≈ 3.65 µM) | – | – | – | – | – | – |
| C=C(C)[C@@H]1CC[C@@]2(C)CC1c1c(O)c3c(c(CC=C(C)C)c1O2)O[C@]12C(=C[C@@H]4CC1C(C)(C)O[C@]2(/C=C/C(C)C(=O)O)C4=O)C3=O (stereo partly drawn) [Gh-2507, β-epigambogellic acid] | 21.0 (≈ 33.4 µM) | – | – | – | – | 0.2 (≈ 0.318 µM) | – |
| C=C(C)C1CC[C@]2(C)C[C@H]1c1c(O)c3c(c(CC=C(C)C)c1O2)O[C@]12C(=C[C@@H]4CC1C(C)(C)O[C@]2(/C=C/C(C)C(=O)O)C4=O)C3=O (stereo partly drawn) [Gh-2508, β-gambogellic acid] | 5.4 (≈ 8.59 µM) | – | – | – | – | – | – |
| C=C(C)[C@@H]1CC[C@@]2(C)CC1c1c(O)c3c(c(CC=C(C)C)c1O2)O[C@]12C(=C[C@@H]4CC1C(C)(C)O[C@]2(C/C=C(/C)C(=O)O)C4=O)C3=O [Gh-2603-1, epigambogellic acid] | – | 3.1 (≈ 4.93 µM) | 3.7 (≈ 5.88 µM) | 2.9 (≈ 4.61 µM) | 3.3 (≈ 5.25 µM) | 1 (≈ 1.59 µM) | IC50 [1, 18]: 0.26 µg/mL (≈ 0.414 µM); IC50 [4, 19]: 1.6 µg/mL (≈ 2.54 µM); IC50 [2, 8]: 2.2 µg/mL (≈ 3.5 µM); CC50 [2]: 4.2 µg/mL (≈ 6.68 µM); IC50 [6, 20]: 1 µg/mL (≈ 1.59 µM); IC50 [7, 21]: 0.036 µg/mL (≈ 0.0573 µM); CC50 [7]: 0.34 µg/mL (≈ 0.541 µM); IC50 [3, 17]: 1.3 µg/mL (≈ 2.07 µM) |
| C=C(C)C1CC[C@]2(C)C[C@H]1c1c(O)c3c(c(CC=C(C)C)c1O2)O[C@]12C(=CC4CC1C(C)(C)O[C@]2(C/C=C(/C)C(=O)O)C4=O)C3=O (some centres unmarked) [Gh-2603-2, gambogellic acid] | – | 3.6 (≈ 5.73 µM) | 3.9 (≈ 6.2 µM) | 2.4 (≈ 3.82 µM) | 3.5 (≈ 5.57 µM) | 0.93 (≈ 1.48 µM) | IC50 [1, 18]: 0.14 µg/mL (≈ 0.223 µM); IC50 [4, 19]: 1.4 µg/mL (≈ 2.23 µM); IC50 [2, 8]: 2.2 µg/mL (≈ 3.5 µM); CC50 [2]: 4.2 µg/mL (≈ 6.68 µM); IC50 [6, 20]: 0.65 µg/mL (≈ 1.03 µM); IC50 [7, 21]: 0.2 µg/mL (≈ 0.318 µM); CC50 [7]: 0.47 µg/mL (≈ 0.748 µM); IC50 [3, 17]: 1.5 µg/mL (≈ 2.39 µM) |
| CC(C)=CCC[C@]1(C)C=Cc2c(O)c3c(c(CC=C(C)C)c2O1)O[C@]12C(=C[C@@H]4CC1C(C)(C)OC2(C/C=C(/C)C(=O)O)C4=O)C3=O [Gh-2605, gambogic acid] | 1.6 (≈ 2.54 µM) | – | – | – | – | – | – |
| CC(C)=CCC[C@@]1(C)C=Cc2c(O)c3c(c(CC=C(C)C)c2O1)O[C@]12C(=C[C@@H]4CC1C(C)(C)O[C@]2(C/C=C(/C)C(=O)O)C4=O)C3=O [Gh-2606, epigambogic acid] | 1.4 (≈ 2.23 µM) | – | 2 (≈ 3.18 µM) | – | 3 (≈ 4.77 µM) | – | IC50 [7, 21]: 0.1 µg/mL (≈ 0.159 µM) |
| CC(C)=CCc1c2c(c(O)c3c1O[C@@]1(C)CCC4C3C1C4(C)C)C(=O)C1=C[C@@H]3CC4C(C)(C)O[C@](C/C=C(/C)C(=O)O)(C3=O)[C@@]14O2 [Gh-2607-1A, epiformoxanthone B] | 1.5 (≈ 2.39 µM) | – | – | – | – | – | – |
| CC(C)=CCc1c2c(c(O)c3c1O[C@]1(C)CCC4[C@H]3C1C4(C)C)C(=O)C1=CC3CC4C(C)(C)O[C@](C/C=C(/C)C(=O)O)(C3=O)[C@@]14O2 [Gh-2607-B, formoxanthone B] | 1.6 (≈ 2.54 µM) | – | 1 (≈ 1.59 µM) | – | 4 (≈ 6.36 µM) | – | IC50 [1, 18]: 0.07 µg/mL (≈ 0.111 µM); IC50 [4, 19]: 0.3 µg/mL (≈ 0.477 µM); IC50 [2, 8]: 0.1 µg/mL (≈ 0.159 µM); IC50 [7, 21]: 0.1 µg/mL (≈ 0.159 µM); IC50 [3, 17]: 0.1 µg/mL (≈ 0.159 µM) |
| CC(C)=CCC/C(C)=C/Cc1c(O)c(CC=C(C)C)c2c(c1O)C(=O)C1=C[C@@H]3CC4C(C)(C)O[C@](C/C=C(\C)C(=O)O)(C3=O)[C@@]14O2 [Gh-2642, isogambogenic acid] | 11 (≈ 17.4 µM) | – | – | – | – | 9 (≈ 14.3 µM) | IC50 [2, 8]: 3 µg/mL (≈ 4.76 µM) |
| CC(C)=CCC/C(C)=C/Cc1c(O)c(CC=C(C)C)c2c(c1O)C(=O)C1=C[C@@H]3CC4C(C)(C)OC(CC=C(C)C)(C3=O)[C@@]14O2 [Gh-4301, desoxygambogenin] | 1.3 (≈ 2.16 µM) | > 100 | – | > 100 | – | – | – |
